Measurements reported in patent US6794356B2, “Fabric softening composition comprising a malodor controlling agent” (The Procter & Gamble Company, priority 2000, dated 2004).

Conditions: typical approximate values; salt added to the solution

| Structure (SMILES) | cloud point of 1% solution of Neodol 91-8 |
| --- | --- |
| O=S(=O)([O-])[O-].[Ca+2] [calcium sulfate] | no change |
| [Cl-].[Na+] [sodium chloride] | 63-66.9 °C |
